In publication PMC7435865, “Antinociceptive and Cytotoxic Activity of Opioid Peptides with Hydrazone and Hydrazide Moieties at the C-Terminus” (Molecules, 2020):
Where “and” joins values, the source holds several entries; their conditions need not be identical. Equal entries are not always repeated.

Key:
µ opioid receptor (MOR) = molecular target: T1, µ opioid receptor (MOR) (Rattus norvegicus, UniProt P33535); design: method as in PMID 28105278; conditions: rat brain homogenate; previously reported ref 33; read-out: MOR IC50 ± SEM; cited from earlier work
T1 construct: Membrane fractions of rat brain homogenate were incubated at 25 °C for 60 min in the presence of radioligands; from tissue; host or cells: rat brain (membrane fractions of homogenate)
T1 sequence (P33535 whole entry): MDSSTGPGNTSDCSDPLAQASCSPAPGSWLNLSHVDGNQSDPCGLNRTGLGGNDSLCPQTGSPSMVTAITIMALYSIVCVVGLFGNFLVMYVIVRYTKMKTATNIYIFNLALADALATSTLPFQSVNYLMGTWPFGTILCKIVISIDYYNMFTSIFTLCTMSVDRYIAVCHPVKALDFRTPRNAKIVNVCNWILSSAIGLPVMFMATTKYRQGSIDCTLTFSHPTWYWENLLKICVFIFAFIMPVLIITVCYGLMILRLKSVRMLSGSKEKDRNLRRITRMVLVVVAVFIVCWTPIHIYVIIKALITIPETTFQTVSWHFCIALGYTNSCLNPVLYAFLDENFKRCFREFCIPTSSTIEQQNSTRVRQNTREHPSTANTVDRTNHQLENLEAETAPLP

[1] = test system: MeW155 human melanoma cells; test: melanoma cell number in culture after incubation with compound; type: cell-based; conditions: 50 µM, 96 h incubation
Description: The determination was performed by counting the cells of the MeW155 cell line after incubating them with 50 µM of the tested compounds.
The cells were plated in 24-well plates (5000 cells per well) and incubated for 24 h in Eagle’s medium containing 10% fetal bovine serum and 1% solution of penicillin and streptomycin. […] Control cells were treated with 1% DMSO only. After 96 h of incubation, the cell suspension was first lysed in lysis buffer (ReagentA, ChemoMetec A/S) and then stabilized in stabilization buffer (ReagentB, ChemoMetec A/S). The number of […] was quantified in a propidium iodide cassette with the use of a NucleoCounter® NC-100™ (ChemoMetec A/S) cell counter. The tests were performed in triplicate. The results were normalized so that the values obtained for the control were 100%.

male Wistar rats = test system: male Wistar rats; design: method as in PMID 28105278; conditions: already published ref 33, cited from earlier work

H-Tyr-D-Ala-Gly-Phe-NH-N=CH-3,5-(CF3)2Ph [1a]
IC50 (µ opioid receptor (MOR)): 12.7 ± 0.75 nM
effect on number of melanoma cells (in words) [1]: significantly decrease the number of melanoma cells
number of MeW155 cells, % of the control value [1]: 39 ± 4 % of the control
antinociceptive effect, % of maximal possible effect (male Wistar rats; 0.5 nmol/rat i.t., 15 min after injection): ~ 80 % MPE and 80 ± 9 % MPE
area under the time course curve (AUC) of analgesic effect (male Wistar rats; 0.5 nmol/rat i.t.): 4483 ± 592 units
ED50 ± SEM (male Wistar rats; tail flick, i.t.): 0.18 ± 0.05 nmol/rat
